Holding throughout (format): cell-based
One experiment concerns the target T1, RARβ (Homo sapiens, UniProt P10826).
T1 construct: expressed in transfected cells; host or cells: CV1 cells
T1 sequence (P10826 1-455): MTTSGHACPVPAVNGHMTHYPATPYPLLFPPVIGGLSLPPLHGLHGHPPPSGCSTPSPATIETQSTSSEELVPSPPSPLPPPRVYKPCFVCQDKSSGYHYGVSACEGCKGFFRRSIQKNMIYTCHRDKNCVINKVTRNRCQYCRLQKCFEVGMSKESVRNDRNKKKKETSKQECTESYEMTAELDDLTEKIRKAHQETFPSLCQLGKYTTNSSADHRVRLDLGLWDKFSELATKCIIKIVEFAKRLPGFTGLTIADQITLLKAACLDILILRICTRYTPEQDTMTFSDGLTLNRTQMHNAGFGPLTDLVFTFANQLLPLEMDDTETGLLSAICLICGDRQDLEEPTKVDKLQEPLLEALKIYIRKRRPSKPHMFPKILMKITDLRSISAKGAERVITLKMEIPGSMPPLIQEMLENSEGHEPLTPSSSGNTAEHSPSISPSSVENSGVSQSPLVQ
Put plainly: Holoreceptor transactivation assay, RARβ. Conditions: for EC50: CV1 cells, luciferase reporter, 36 hours incubation; for Transactivation Assay Afficacy (% of RA activity) RARβ: relative to all trans retinoic acid. As for the experimental part: (§1) A description of the holoreceptor transactivation assay is also provided below.
(§2) (8). […] (8, 9). […] A β-galactosidase (50 ng) expression vector was used as an internal control in the transfections to normalize for variations in transfection efficiency. The cells were transfected in triplicate for 6 hours, followed by incubation with retinoids for 36 hours, and the extracts were assayed for luciferase and β-galactosidase activities. The detailed experimental procedure for holoreceptor transactivations has been described in Heyman et al. above, and Allegretto et al. cited above. […] The results of ligand binding assay are expressed in KD50 numbers.
A general note: A reporter such as luciferase makes a cellular process visible.

Another experiment deals with T2, RARΓ (Homo sapiens, UniProt P13631).
T2 construct: expressed in transfected cells; host or cells: CV1 cells
T2 sequence (P13631 1-454): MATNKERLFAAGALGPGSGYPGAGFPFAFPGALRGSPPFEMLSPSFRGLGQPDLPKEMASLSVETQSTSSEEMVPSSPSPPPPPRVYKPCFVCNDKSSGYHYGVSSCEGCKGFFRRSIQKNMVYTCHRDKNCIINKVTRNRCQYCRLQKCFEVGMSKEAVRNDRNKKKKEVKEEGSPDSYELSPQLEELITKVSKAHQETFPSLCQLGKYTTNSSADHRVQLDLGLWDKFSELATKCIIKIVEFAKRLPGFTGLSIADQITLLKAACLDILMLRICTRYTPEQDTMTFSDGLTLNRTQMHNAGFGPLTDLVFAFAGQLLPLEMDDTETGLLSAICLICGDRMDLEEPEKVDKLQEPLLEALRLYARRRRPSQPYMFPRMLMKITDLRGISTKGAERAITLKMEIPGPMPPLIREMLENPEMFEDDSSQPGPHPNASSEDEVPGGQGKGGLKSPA
Put plainly: Holoreceptor transactivation assay, RARΓ. The settings on record: for EC50: CV1 cells, luciferase reporter, 36 hours incubation; for Transactivation Assay Afficacy (% of RA activity) RARΓ: relative to all trans retinoic acid. As for the experimental part:
as §1, §2

In another experiment the target is T3, RARα (Homo sapiens, UniProt P10276).
T3 construct: expressed in transfected cells; host or cells: CV1 cells
T3 sequence (P10276 1-462): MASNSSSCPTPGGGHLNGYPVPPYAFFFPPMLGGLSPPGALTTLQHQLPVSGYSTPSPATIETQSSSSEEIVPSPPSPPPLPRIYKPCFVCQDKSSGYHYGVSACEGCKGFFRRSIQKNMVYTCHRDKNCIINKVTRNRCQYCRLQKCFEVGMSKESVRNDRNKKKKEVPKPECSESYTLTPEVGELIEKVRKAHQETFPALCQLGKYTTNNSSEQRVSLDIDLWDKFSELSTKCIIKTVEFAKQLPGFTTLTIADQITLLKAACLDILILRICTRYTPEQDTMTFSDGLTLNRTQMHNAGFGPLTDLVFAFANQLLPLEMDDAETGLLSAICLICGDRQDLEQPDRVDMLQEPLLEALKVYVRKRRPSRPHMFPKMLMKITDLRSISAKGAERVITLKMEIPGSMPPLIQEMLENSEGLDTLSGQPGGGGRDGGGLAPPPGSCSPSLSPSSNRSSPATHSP
Put plainly: Holoreceptor transactivation assay, RARα. The settings on record: for EC50: CV1 cells, luciferase reporter, 36 hours incubation; for Transactivation Assay Afficacy (% of RA activity) RARα: relative to all trans retinoic acid. As for the experimental part: as §1, §2

In the next experiment the target is T4, RXRΓ (Mus musculus, UniProt P28705).
T4 construct: expressed in transfected cells; host or cells: CV1 cells
T4 sequence (P28705 1-463): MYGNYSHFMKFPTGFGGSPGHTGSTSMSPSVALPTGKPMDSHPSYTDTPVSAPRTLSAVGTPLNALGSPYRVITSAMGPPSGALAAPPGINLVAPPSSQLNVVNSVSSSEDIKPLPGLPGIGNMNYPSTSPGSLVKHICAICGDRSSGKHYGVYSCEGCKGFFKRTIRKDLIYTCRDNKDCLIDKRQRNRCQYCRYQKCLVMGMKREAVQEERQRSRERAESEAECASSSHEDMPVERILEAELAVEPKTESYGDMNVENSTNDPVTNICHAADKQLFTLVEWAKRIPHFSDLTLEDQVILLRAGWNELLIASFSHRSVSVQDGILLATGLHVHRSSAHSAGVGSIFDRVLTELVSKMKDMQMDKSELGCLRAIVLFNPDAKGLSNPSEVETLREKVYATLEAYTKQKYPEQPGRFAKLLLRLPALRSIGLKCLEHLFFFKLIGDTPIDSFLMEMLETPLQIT
Put plainly: Holoreceptor transactivation assay, RXRΓ. The settings on record: for EC50: CV1 cells, luciferase reporter, 36 hours incubation; for Transactivation Assay Afficacy (% of RA activity) RXRΓ: relative to all trans retinoic acid. The procedure: as §1, §2

Another experiment addresses T5, RXRβ (Mus musculus, UniProt P28704).
T5 sequence (P28704 1-520): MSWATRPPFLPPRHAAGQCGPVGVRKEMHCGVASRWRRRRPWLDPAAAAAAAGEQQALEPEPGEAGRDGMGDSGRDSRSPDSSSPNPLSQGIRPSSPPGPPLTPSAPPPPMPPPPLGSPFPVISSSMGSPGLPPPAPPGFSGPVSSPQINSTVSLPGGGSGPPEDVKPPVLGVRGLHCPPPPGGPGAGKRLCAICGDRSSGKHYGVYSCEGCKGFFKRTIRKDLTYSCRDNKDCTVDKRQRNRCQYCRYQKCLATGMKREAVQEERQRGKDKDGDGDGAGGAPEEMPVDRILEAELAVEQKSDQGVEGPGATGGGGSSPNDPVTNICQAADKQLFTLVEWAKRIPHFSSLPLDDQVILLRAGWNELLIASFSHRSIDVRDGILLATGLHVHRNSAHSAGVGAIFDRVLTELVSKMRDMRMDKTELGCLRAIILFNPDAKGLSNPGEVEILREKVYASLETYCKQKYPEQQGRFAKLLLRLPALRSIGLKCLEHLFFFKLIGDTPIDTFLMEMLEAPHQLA
Put plainly: Holoreceptor transactivation assay, RXRβ. Conditions: relative to all trans retinoic acid; read-out: Transactivation Assay Afficacy (% of RA activity) RXRβ. As for the experimental part: as §1, §2

The structures appear in SMILES notation.

Regarding `CC(/C=C/c1ccccc1-c1ccc2c(c1)C(C)(C)CCC2(C)C)=C\C(=O)O` [Compound 9, 3-Methyl-5-[2-(5,5,8,8,-tetramethyl-5,6,7,8-tetrahydronaphth-2-yl)phenyl]pent-2(E),4(E)-dienoic Acid], at RARβ, the 50% effective concentration (EC50) (in general, the concentration that produces a half-maximal response) is greater than 1 µM and the “Transactivation Assay Afficacy (% of RA activity) RARβ” value was 8.0 % of RA activity. In addition, on RARΓ, the EC50 is greater than 1 µM and the “Transactivation Assay Afficacy (% of RA activity) RARΓ” value is reported as 8.0 % of RA activity. On RARα, the EC50 is greater than 1 µM and the “Transactivation Assay Afficacy (% of RA activity) RARα” value was 2.0 % of RA activity. On RXRΓ, the concentration giving a half-maximal response (EC50) worked out at 0.24 µM and the “Transactivation Assay Afficacy (% of RA activity) RXRΓ” value was 50.0 % of RA activity. Besides, the Emax on RXRβ stood at 94%.

Consider `CC(C=CC1CC1(C)c1cc2c(cc1C)C(C)(C)CCC2(C)C)=CC(=O)O` (stereo not drawn) [Compound 13, 3,7-Dimethyl,6(RS),7(SR) methano-7-(3,5,5,8,8-pentamethyl-5,6,7,8-tetrahydronaphth-2-yl),2(E),4(E)-heptadienoic Acid], for which, at RARβ, the EC50 was greater than 1 µM and the “Transactivation Assay Afficacy (% of RA activity) RARβ” value is given as 3.0 % of RA activity. Besides, on RARΓ, the EC50 is greater than 1 µM and the “Transactivation Assay Afficacy (% of RA activity) RARΓ” value is reported as 8.0 % of RA activity. Moreover, at RARα, the EC50 is greater than 1 µM and the “Transactivation Assay Afficacy (% of RA activity) RARα” value is listed as 0.0 % of RA activity. On RXRΓ, the midpoint of the response, the EC50, lay at 0.071 µM and the “Transactivation Assay Afficacy (% of RA activity) RXRΓ” value is on record as 40.0 % of RA activity. Besides, the Emax at RXRβ was 72%.

As to `CC(C=CC1CC1(C)c1ccc2c(c1)C(C)(C)CCS2)=CC(=O)O` (stereo not drawn) [Compound 17, 3,7-Dimethyl,6(RS),7(SR) methano-7-(4,4-dimethylthiochroman-6-yl) 2(E),4(E)-heptadienoic Acid], on RARβ, the EC50 came out at 0.048 µM and the “Transactivation Assay Afficacy (% of RA activity) RARβ” value is 29 % of RA activity. Further, at RARΓ, the EC50 is 0.27 µM and the “Transactivation Assay Afficacy (% of RA activity) RARΓ” value is reported as 41 % of RA activity. Besides, on RARα, a half-maximal effect (EC50) was put at 1.2 µM and the “Transactivation Assay Afficacy (% of RA activity) RARα” value was 30 % of RA activity. Moreover, on RXRΓ, the EC50 is 0.013 µM and the “Transactivation Assay Afficacy (% of RA activity) RXRΓ” value is recorded as 73 % of RA activity. Further, at RXRβ, the Emax was 118%.

`CC(C=CC1CC1(C)c1ccc2c(c1)C(C)(C)CCO2)=CC(=O)O` (stereo not drawn) [Compound 21, 3,7-Dimethyl,6(RS),7(SR) methano-7-(4,4-dimethyl-chroman-6-yl),2(E),4(E)-heptadienoic Acid]: on RARβ, the EC50 was 1.8 µM and the “Transactivation Assay Afficacy (% of RA activity) RARβ” value was 26.0 % of RA activity. Moreover, on RARΓ, the EC50 is greater than 1 µM and the “Transactivation Assay Afficacy (% of RA activity) RARΓ” value is reported as 14.0 % of RA activity. Moreover, at RARα, the 50% effective concentration (EC50) is greater than 1 µM and the “Transactivation Assay Afficacy (% of RA activity) RARα” value is listed as 4.0 % of RA activity. Besides, on RXRΓ, the midpoint of the response, the EC50, lay at 0.029 µM and the “Transactivation Assay Afficacy (% of RA activity) RXRΓ” value is listed as 85.0 % of RA activity. The Emax on RXRβ is 93%.

The values above are taken from patent publication US20020082419A1, “2,4-pentadienoic acid derivatives having retinoid-like biological activity” (Allergan Sales, Inc., priority 1995, published 2002).
